Some results are limits rather than exact numbers.

Test [1] concerns A2780 (BRCA wt, HRD−) ovarian cancer cell line-derived xenograft. Description: Niraparib and bevacizumab combination in ovarian cancer cell line-derived xenograft model A2780. It counts as in vivo, mouse. Particulars: A2780, CB-17 SCID female mice, 2 weeks; niraparib 60 mg/kg po qd, bevacizumab 10 mg/kg iv qw; end of treatment.
For test [2] the test system is unchanged. Put plainly: Niraparib and cabozantinib combination in ovarian cancer cell line-derived xenograft model A2780. Conditions: A2780, Balb/C nude female mice, 2 weeks; niraparib 60 mg/kg po qd, cabozantinib 30 mg/kg po qd; end of treatment. It counts as in vivo, mouse.
Another test concerns ovarian PDX model OVC134. Description: Niraparib and cabozantinib combination in ovarian PDX model OVC134. It counts as in vivo, mouse.
In the next test the test system is TNBC PDX model MAXF 857. Put plainly: Niraparib+bevacizumab and niraparib+cabozantinib combinations in TNBC PDX model MAXF 857. It counts as in vivo, mouse. Conditions: for Tumor growth inhibition (TGI): MAXF 857, NMRI nude female mice, 5 weeks, bevacizumab 20 mg/kg iv qw, cabozantinib 30 mg/kg po qd, end of treatment.

`NC(=O)c1cccc2cn(-c3ccc([C@@H]4CCCNC4)cc3)nc12` [niraparib, (3S)-3-[4-{7-(aminocarbonyl)-2H-indazol-2-yl}phenyl]piperidine]: the “Tumor growth inhibition (TGI)” value in test [1] is given as less than 40%; in test [2] it was 18%; in the test with TNBC PDX model MAXF MX1 (MAXF MX1, NMRI nude female mice, 5 weeks, niraparib 50 mg/kg po qd, end of treatment) it was 99%. Besides, the “Sensitivity of the model to monotherapy (anti-tumor activity)” value in the test with ovarian PDX model OVC134 (ovarian PDX model OVC134, 7 weeks) is “very sensitive”; in the test with TNBC PDX model MAXF MX1 (TNBC PDX model MAXF MX1, 5 weeks), “very sensitive”.
For the compound `COc1cc2nccc(Oc3ccc(NC(=O)C4(C(=O)Nc5ccc(F)cc5)CC4)cc3)c2cc1OC` [cabozantinib], the “Tumor growth inhibition (TGI)” value is on record as 51% in test [2]; 83% in the test with ovarian PDX model OVC134 (OVC134, Balb/C nude female mice, 7 weeks, cabozantinib 30 mg/kg po qd, end of treatment); 65% in the test on TNBC PDX model MAXF 857.
As to “bevacizumab: recombinant humanized monoclonal antibody that can block angiogenesis and inhibit vascular endothelial growth factor A (VEGF-A)”, the “Tumor growth inhibition (TGI)” value in test [1] is on record as 55%; in the test on TNBC PDX model MAXF 857, 76%. In addition, the “Sensitivity of the model to monotherapy (anti-tumor activity)” value in the test with TNBC PDX model MAXF 857 (TNBC PDX model MAXF 857, 5 weeks) was “very sensitive”.

Values taken from US11801240B2, “Combination therapies and uses thereof” (Tesaro, Inc., priority 2017, dated 2023).
